Measurements: US20120058989A1, “ANTIBACTERIAL FLUOROQUINOLONE ANALOGS” (Achaogen, Inc., priority 2008, published 2012)

Columns and labels:
Test in all cases: MIC, CLSI broth microdilution
Assay type in all cases: cell-based
[1] = system: S. pneumoniae ASPN1027 (Fluoroquinolone-resistant)
In short: (§1)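 Test compounds were diluted two-fold at 2× strength in Mueller Hinton Broth, then combined 1:1 with saline-suspended bacteria from an overnight agar colony to reach 5×10^5 CFU/mL. Incubation followed at 35° C. for 20 hours in ambient air, per CLSI reference methods.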

[2] = system: E. coli AECO066 (Fluoroquinolone-resistant)
In short: as §1

[3] = system: S. aureus ASAU002 (Fluoroquinolone-susceptible, ATCC33591 (MRSA)); conditions: Table 3
In short: as §1

[4] = system: A. baumannii AABA1009 (Fluoroquinolone-resistant); conditions: Table 2
In short: as §1

[5] = system: P. aeruginosa APAE054 (Fluoroquinolone-resistant)
In short: as §1

[6] = system: A. baumannii AABA1065 (Fluoroquinolone-susceptible)
In short: as §1

[7] = system: E. coli AECO002 (Fluoroquinolone susceptible); conditions: Table 3
In short: as §1

[8] = system: P. aeruginosa APAE001 (Fluoroquinolone-susceptible, ATCC27853)
In short: as §1

[9] = system: A. baumannii AABA1020 (Fluoroquinolone-resistant); conditions: Table 3
In short: as §1

[10] = system: S. aureus ASAU001 (Fluoroquinolone-susceptible, ATCC29213)
In short: as §1

[11] = system: S. aureus ASAU1031 (Fluoroquinolone-resistant)
In short: as §1

[12] = system: S. pneumoniae ASPN001 (Fluoroquinolone-susceptible, ATCC49619)
In short: as §1

[13] = system: S. pneumoniae ASPN002 (Fluoroquinolone-susceptible, ATCC10813); conditions: Table 3
In short: as §1

[14] = system: E. coli AECO086 (Fluoroquinolone-resistant); conditions: Table 3
In short: as §1

[15] = system: S. aureus ASAU1033 (Fluoroquinolone-resistant); conditions: Table 3
In short: as §1

[16] = system: S. pneumoniae ASPN1018 (Fluoroquinolone-resistant); conditions: Table 3
In short: as §1

[17] = system: E. coli AECO001 (Fluoroquinolone susceptible, ATCC25922)
In short: as §1

[18] = system: P. aeruginosa APAE002 (Fluoroquinolone susceptible); conditions: Table 3
In short: as §1

Row | SMILES | MIC ASPN 1027 ([1]; Table 2) | MIC ASPN 1027 ([1]; Table 3) | MIC AECO 066 ([2]; Table 2) | MIC AECO 066 ([2]; Table 3) | MIC ASAU002 [3] | MIC AABA 1009 [4] | MIC APAE 054 ([5]; Table 2) | MIC APAE 054 ([5]; Table 3) | MIC AABA 1065 ([6]; Table 2) | MIC AABA 1065 ([6]; Table 3) | MIC AECO002 [7] | MIC APAE 001 ([8]; Table 2) | MIC APAE 001 ([8]; Table 3) | MIC AABA1020 [9] | MIC ASAU 001 ([10]; Table 2) | MIC ASAU 001 ([10]; Table 3) | MIC ASAU 1031 ([11]; Table 2) | MIC ASAU 1031 ([11]; Table 3) | MIC ASPN 001 ([12]; Table 2) | MIC ASPN 001 ([12]; Table 3) | other results
1 | NC1CCN2c3c(F)cc4c(=O)c(C(=O)O)cn(C5CC5)c4c3CCCC12.O=C(O)C(F)(F)F [16/18, (7aR,8R)-8-Amino-4-cyclopropyl-12-fluoro-1-oxo-4,5,6,7,7a,8,9,10-octahydro-1H-pyrrolo[1′,2′:1,7]azepino[2,3-h]quinoline-2-carboxylic acid trifluoroacetate] | B (MIC's of greater than 1.0 μg/mL to 8.0 μg/mL = B) | A (MIC's of less than 1.0 = A) | B (MIC's of greater than 1.0 μg/mL to 8.0 μg/mL = B) | C (MIC's of 2.0 μg/mL to 8.0 μg/mL = C) | A (MIC's of less than 1.0 = A) | B (MIC's of greater than 1.0 μg/mL to 8.0 μg/mL = B) | C (MIC's of greater than 8.0 μg/mL = C) | D (MIC's of greater than 8.0 μg/mL = D) | A (MIC's of 1.0 μg/mL or less = A) | A (MIC's of less than 1.0 = A) | A (MIC's of less than 1.0 = A) | A (MIC's of 1.0 μg/mL or less = A) | A (MIC's of less than 1.0 = A) | D (MIC's of greater than 8.0 μg/mL = D) | A (MIC's of 1.0 μg/mL or less = A) | A (MIC's of less than 1.0 = A) | B (MIC's of greater than 1.0 μg/mL to 8.0 μg/mL = B) | A (MIC's of less than 1.0 = A) | A (MIC's of 1.0 μg/mL or less = A) | A (MIC's of less than 1.0 = A) | MIC ASPN002 [13]: A (MIC's of less than 1.0 = A); MIC AECO086 [14]: C (MIC's of 2.0 μg/mL to 8.0 μg/mL = C); MIC ASAU1033 [15]: C (MIC's of 2.0 μg/mL to 8.0 μg/mL = C); MIC ASPN1018 [16]: B (MIC's of 1.0 μg/mL to 2.0 μg/mL = B); MIC AECO 001 ([17]; Table 2, 35° C., 20 hours): A (MIC's of 1.0 μg/mL or less = A); MIC AECO 001 ([17]; Table 3): A (MIC's of less than 1.0 = A); MIC APAE002 [18]: A (MIC's of less than 1.0 = A)
2 | N[C@H]1CCN2c3c(F)cc4c(=O)c(C(=O)O)cn(C5CC5)c4c3C=CC[C@H]12.O=C(O)C(F)(F)F [17/8, (7aR,8S)-8-Amino-4-cyclopropyl-12-fluoro-1-oxo-4,7,7a,8,9,10-hexahydro-1H-pyrrolo[1′,2′:1,7]azepino[2,3-h]quinoline-2-carboxylic acid trifluoroacetate] | B (MIC's of greater than 1.0 μg/mL to 8.0 μg/mL = B) | A (MIC's of less than 1.0 = A) | B (MIC's of greater than 1.0 μg/mL to 8.0 μg/mL = B) | C (MIC's of 2.0 μg/mL to 8.0 μg/mL = C) | A (MIC's of less than 1.0 = A) | C (MIC's of greater than 8.0 μg/mL = C) | C (MIC's of greater than 8.0 μg/mL = C) | D (MIC's of greater than 8.0 μg/mL = D) | A (MIC's of 1.0 μg/mL or less = A) | A (MIC's of less than 1.0 = A) | A (MIC's of less than 1.0 = A) | A (MIC's of 1.0 μg/mL or less = A) | A (MIC's of less than 1.0 = A) | D (MIC's of greater than 8.0 μg/mL = D) | A (MIC's of 1.0 μg/mL or less = A) | A (MIC's of less than 1.0 = A) | B (MIC's of greater than 1.0 μg/mL to 8.0 μg/mL = B) | A (MIC's of less than 1.0 = A) | A (MIC's of 1.0 μg/mL or less = A) | A (MIC's of less than 1.0 = A) | MIC ASPN002 [13]: A (MIC's of less than 1.0 = A); MIC AECO086 [14]: B (MIC's of 1.0 μg/mL to 2.0 μg/mL = B); MIC ASAU1033 [15]: C (MIC's of 2.0 μg/mL to 8.0 μg/mL = C); MIC ASPN1018 [16]: B (MIC's of 1.0 μg/mL to 2.0 μg/mL = B); MIC AECO 001 ([17]; Table 2, 35° C., 20 hours): A (MIC's of 1.0 μg/mL or less = A); MIC AECO 001 ([17]; Table 3): A (MIC's of less than 1.0 = A); MIC APAE002 [18]: A (MIC's of less than 1.0 = A)
